# System: HOS-FRα tumor-bearing mice
# Experiment: Toxicity and CRS rescue with sodium fluorescein
# Type: in vivo
# Conditions: sodium fluorescein i.v. ~95 mg/kg, severe CRS, 35 million total CAR-T cells (93:7 CD4/CD8), plasma 6 h later
# Experimental: Depending on the CAR-T cell dose and how EC17 is administered, tumor-bearing mice receiving FITC-specific CAR-T cells can experience severe CRS and varying degrees of body weight loss ([27], [33], [34]). Therefore, we developed a CRS grading system (0–5 scale) to empirically assess CRS toxicity from animals' gross morphology and social behavior to allow for better timing of CRS rescue. While grades 0 and 5 indicated normal (no CRS) or death (due to severe CRS), respectively, grades 1, 2, and 3–4 were considered mild, light-to-moderate, and severe CRS. In addition, all EC17 doses were intentionally given toward the end of any given day to allow potential CRS symptoms to develop overnight. On the days immediately following each EC17 dose, animals were scored and rescue agents such as sodium fluorescein, folic acid and leucovorin were used to mitigate CRS toxicity ([33]). In this particular instance, a batch of E2-CAR-T cells with a high EGFRt+ CD4/CD8 ratio (~93:7) was given to HOS-FRα tumor-bearing mice at a mixture of ~2.5 million CD8 and ~33 million CD4 on day 0. When EC17 was dosed, respectively, at 500, 100, and 500 nmol/kg on days 3, 10, and 12, low CRS (grades 1–2) was noted on days 4 and 11 but high CRS (grade 3) was noted on day 13. To mitigate the severe CRS toxicity, sodium fluorescein was intravenously administrated at ~96 mg/kg in the morning of day 13 and mouse plasma samples were collected 6 h later for analysis of CRS-associated cytokines.
smiles,measurement,value
"O=C([O-])c1ccccc1-c1c2ccc(=O)cc-2oc2cc([O-])ccc12.[Na+].[Na+] [sodium fluorescein, reference compound]",CAR-T cell derived human cytokines after CRS rescue,acted very quickly to reduce CAR-T cell derived human cytokines

# Reference: article PMC6433934, “Preclinical Evaluation of Bispecific Adaptor Molecule Controlled Folate Receptor CAR-T Cell Therapy With Special Focus on Pediatric Malignancies” (Frontiers in Oncology, 2019)
